Laboratory results from patent US20040076974A1, “Liver necrosis predictive genes” (priority 2002, published 2004).
“And” between values parts separate entries of the source, which are not always exact repeats. Equal values may be shown once. Read-outs that look alike come from different tables or passages of the source.

What was measured:
[1] = tested on: toxicologically relevant rat genes (rat CT array)
Sprague Dawley rats = settings: for Liver Necrosis / Score (histopathology liver necrosis severity score): rat, intraperitoneal; for Liver Necrosis: 72 hours after treatment; for Score (histopathology liver necrosis severity score): 72 hours, 1 = not remarkable, 2 and higher increasing severity
How it was run: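 Toxicity calls (necrosis present or absent at 72 h) and histopathology scores were correlated with tissue gene expression from Crl:CD Sprague Dawley rats. Animals, usually 3 treated with compound by i.p. route and 3 given vehicle, were killed at 6, 24 or 72 h and tissues frozen immediately in liquid nitrogen.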

`Brc1ccccc1` [bromobenzene] was tested, and the “Ribosomal protein L13A expression (treatment/control)” value ([1]; 24 h, dose 200, listed as BRB) was 2.014 and 1.811 and 2.099, the “Ribosomal protein S8 expression (treatment/control)” value ([1]; 24 h, dose 200, listed as BRB) was 2.657 and 2.216 and 2.391 and the “Ribosomal protein S9 expression (treatment/control)” value ([1]; 24 h, dose 200, listed as BRB) was 1.821 and 1.272 and 1.544. For the same compound, the “Ribosomal protein S17 expression (treatment/control)” value ([1]; 24 h, dose 200, listed as BRB) was 2.853 and 2.061 and 2.44, the “Superoxide dismutase Mn expression (treatment/control)” value ([1]; 24 h, dose 200, listed as BRB) was 2.675 and 1.611 and 3.075 and the “T-cell cyclophilin expression (treatment/control)” value ([1]; 24 h, dose 200, listed as BRB) was 1.63 and 1.482 and 1.522. The “Thymosin beta-10 expression (treatment/control)” value ([1]; 24 h, dose 200, listed as BRB) was 1.331 and 1.367 and 1.373, the “Ubiquitin conjugating enzyme (RAD 6 homologue) expression (treatment/control)” value ([1]; 24 h, dose 200, listed as BRB) was 1.182 and 0.8017 and 1.22 and the “Uncoupling protein 2 expression (treatment/control)” value ([1]; 24 h, dose 200, listed as BRB) was 0.9873 and 1.103. For the same compound, the “c-H-ras expression (treatment/control)” value ([1]; 24 h, dose 200, listed as BRB) was 1.3, the “c-jun expression (treatment/control)” value ([1]; 24 h, dose 200, listed as BRB) was 1.819 and 1.494 and 2.242 and the “p53 expression (treatment/control)” value ([1]; 24 h, dose 200, listed as BRB) was 1.448 and 1.7. The “{Ribosomal protein L6} expression (treatment/control)” value ([1]; 24 h, dose 200, listed as BRB) was 2.964 and 2.141 and 2.538, the “14-3-3 zeta expression (treatment/control)” value ([1]; 24 h, dose 800, listed as BRB) was 1.787 and 1.416 and 1.415 and the “17-beta hydroxysteroid dehydrogenase, type 2 expression (treatment/control)” value ([1]; 24 h, dose 800, listed as BRB) was 0.2858 and 0.3548 and 0.3188. For the same compound, the “Cathepsin L, sequence 2 expression (treatment/control)” value ([1]; 24 h, dose 800, listed as BRB) was 3.444 and 2.804 and 1.941, the “Dynamin-1 (D100) expression (treatment/control)” value ([1]; 24 h, dose 800, listed as BRB) was 0.7266 and 0.7238 and 0.7854 and the “Gadd45 expression (treatment/control)” value ([1]; 24 h, dose 800, listed as BRB) was 3.152 and 4.261 and 2.965. The “Gamma-actin, cytoplasmic expression (treatment/control)” value ([1]; 24 h, dose 800, listed as BRB) was 4.159 and 3.751 and 3.387, the “Insulin-like growth factor binding protein 1 expression (treatment/control)” value ([1]; 24 h, dose 800, listed as BRB) was 2.338 and 2.353 and 1.62 and the “L-gulono-gamma-lactone oxidase expression (treatment/control)” value ([1]; 24 h, dose 800, listed as BRB) was 0.3036 and 0.326 and 0.3525. The “Matrin F/G expression (treatment/control)” value ([1]; 24 h, dose 800, listed as BRB) was 0.4315 and 0.4295 and 0.6079, the “Ornithine decarboxylase expression (treatment/control)” value ([1]; 24 h, dose 800, listed as BRB) was 2.92 and 2.902 and 2.002 and the “PAR interacting protein expression (treatment/control)” value ([1]; 24 h, dose 800, listed as BRB) was 3.554 and 2.34. For the same compound, the “Phase-1 RCT-33 expression (treatment/control)” value ([1]; 24 h, dose 800, listed as BRB) was 0.6976 and 0.5633 and 0.5757, the “Phase-1 RCT-36 expression (treatment/control)” value ([1]; 24 h, dose 800, listed as BRB) was 0.7359 and 0.7782 and the “Phase-1 RCT-38 expression (treatment/control)” value ([1]; 24 h, dose 800, listed as BRB) was 0.4296 and 0.4024 and 0.4536. The “Phase-1 RCT-39 expression (treatment/control)” value ([1]; 24 h, dose 800, listed as BRB) was 1.555 and 1.399, the “Phase-1 RCT-40 expression (treatment/control)” value ([1]; 24 h, dose 800, listed as BRB) was 0.4257 and 0.4952 and 0.445 and the “Phase-1 RCT-48 expression (treatment/control)” value ([1]; 24 h, dose 800, listed as BRB) was 0.6158 and 0.633. The “Phase-1 RCT-49 expression (treatment/control)” value ([1]; 24 h, dose 800, listed as BRB) was 2.478 and 2.062 and 1.658, the “Phase-1 RCT-50 expression (treatment/control)” value ([1]; 24 h, dose 800, listed as BRB) was 2.438 and 2.537 and 1.76 and the “Phase-1 RCT-68 expression (treatment/control)” value ([1]; 24 h, dose 800, listed as BRB) was 2.05 and 1.892 and 1.519. The “Phase-1 RCT-78 expression (treatment/control)” value ([1]; 24 h, dose 800, listed as BRB) was 0.5752 and 0.6922 and 0.6621, the “Phase-1 RCT-83 expression (treatment/control)” value ([1]; 24 h, dose 800, listed as BRB) was 0.6019 and 0.6858 and 0.5634 and the “Phase-1 RCT-89 expression (treatment/control)” value ([1]; 24 h, dose 800, listed as BRB) was 0.4544 and 0.462 and 0.4723. The “Phase-1 RCT-92 expression (treatment/control)” value ([1]; 24 h, dose 800, listed as BRB) was 0.4761 and 0.6497 and 0.7002, the “Phase-1 RCT-128 expression (treatment/control)” value ([1]; 24 h, dose 800, listed as BRB) was 0.5684 and 0.564 and 0.6 and the “Phase-1 RCT-144 expression (treatment/control)” value ([1]; 24 h, dose 800, listed as BRB) was 3.092 and 2.983 and 2.106. For the same compound, the “Phase-1 RCT-145 expression (treatment/control)” value ([1]; 24 h, dose 800, listed as BRB) was 2.75 and 1.96 and 1.846, the “Phase-1 RCT-180 expression (treatment/control)” value ([1]; 24 h, dose 800, listed as BRB) was 1.726 and the “Phase-1 RCT-182 expression (treatment/control)” value ([1]; 24 h, dose 800, listed as BRB) was 0.5041 and 0.56 and 0.6572. For the same compound, the “Phase-1 RCT-207 expression (treatment/control)” value ([1]; 24 h, dose 800, listed as BRB) was 3.826 and 2.754 and 2.464, the “Phase-1 RCT-213 expression (treatment/control)” value ([1]; 24 h, dose 800, listed as BRB) was 2.021 and 2.316 and 1.605 and the “Phase-1 RCT-256 expression (treatment/control)” value ([1]; 24 h, dose 800, listed as BRB) was 0.3752 and 0.4196 and 0.4307. For the same compound, the “Phase-1 RCT-258 expression (treatment/control)” value ([1]; 24 h, dose 800, listed as BRB) was 1.65, the “Phase-1 RCT-264 expression (treatment/control)” value ([1]; 24 h, dose 800, listed as BRB) was 0.3546 and 0.4999 and 0.3553 and the “Phase-1 RCT-271 expression (treatment/control)” value ([1]; 24 h, dose 800, listed as BRB) was 0.5889 and 0.6221. The “Phase-1 RCT-288 expression (treatment/control)” value ([1]; 24 h, dose 800, listed as BRB) was 0.3511 and 0.3915 and 0.4038, the “Phase-1 RCT-291 expression (treatment/control)” value ([1]; 24 h, dose 800, listed as BRB) was 0.6663 and 0.746 and 0.732 and the “Phase-1 RCT-295 expression (treatment/control)” value ([1]; 24 h, dose 800, listed as BRB) was 1.75 and 2.065 and 1.52. For the same compound, the “Phase-1 RCT-296 expression (treatment/control)” value ([1]; 24 h, dose 800, listed as BRB) was 0.3839 and 0.27 and 0.2605, the “Ribosomal protein S17 expression (treatment/control)” value ([1]; 24 h, dose 800, listed as BRB) was 2.61 and 2.612 and 1.969 and the “Senescence marker protein-30 expression (treatment/control)” value ([1]; 24 h, dose 800, listed as BRB) was 0.1397 and 0.1646 and 0.1474. The “Zinc finger protein expression (treatment/control)” value ([1]; 24 h, dose 800, listed as BRB) was 3.935 and 2.153 and 2.076, the “Paraoxonase 1 expression (treatment/control)” value ([1]; rat, in vivo) was 0.8235 and 0.866 and 0.513 and the “Liver Toxicity Necrosis Classification” value (Sprague Dawley rats; 72 h, compound-dose group, dose BRB 800, BUS 14, CAD 1, CAR 16) was “yes”. The “Liver Toxicity Necrosis Classification” value (Sprague Dawley rats; 72 h, dose 200, animals 2327, 2328, 2329) was “yes”, the “Liver Toxicity Necrosis Classification” value (Sprague Dawley rats; 72 h, dose 800, animal 2337) was “yes” and the “Liver Toxicity Necrosis Classification” value (Sprague Dawley rats; compound-dose group at 72 h, dose 200, yes = necrosis observed) was “yes”. For the same compound, the “Liver Toxicity Necrosis Classification” value (Sprague Dawley rats; compound-dose group at 72 h, dose 800, yes = necrosis observed) was “yes”, the “Liver Toxicity Necrosis Classification” value (Sprague Dawley rats; compound-dose group at 72 h, dose 200) was “yes” and the “Liver Toxicity Necrosis Classification” value (Sprague Dawley rats; compound-dose group at 72 h, dose 800) was “yes”. For the same compound, the “Liver Necrosis” value (Sprague Dawley rats; dose 0.2 ml/kg) was “Yes”, the “Score (histopathology liver necrosis severity score)” value (Sprague Dawley rats; dose 0.2 ml/kg) was 2 and the “Liver Necrosis” value (Sprague Dawley rats; dose 0.8 ml/kg) was “Yes”. The “Score (histopathology liver necrosis severity score)” value (Sprague Dawley rats; dose 0.8 ml/kg) was 4.
